Results from patent US20220160658A1, “TESOFENSINE FOR REDUCTION OF BODY WEIGHT IN PRADER-WILLI PATIENTS” (Saniona A/S, priority 2019, published 2022).
Where “and” joins values, the source holds several entries; their conditions need not be identical. Identical values can stand only once.

Assays:
[1] = cited from earlier work
[2] = system: rat model of diet-induced obesity (DIO); settings: DIO rats; cited from earlier work
[3] = Phase 2a trial in adolescent PWS patients: tesofensine plasma levels; assay type: in vivo, human; settings: for concentration at 3 months: human, plasma, oral
Description: (§1) This study included a double blind (DB) part (3 months) and two Open Label Extensions (OLE), each 3 months. Adolescents (12 to 17 years of age) received: tesofensine 0.125 mg daily (0.25 mg every second day)+metoprolol succinate 25 mg. Example 4 relates to Example 2.
(§2) The initial double blind (DB) phase of this study utilized a dose of tesofensine of 0.125 mg daily. In the first 3-month Open Label Extension (OLE1), a dose of 0.125 mg tesofensine was maintained. In the second OLE (OLE2), the tesofensine dose, if judged safe by the principle investigator (PI), was increased to 0.25 mg daily.

[4] = Phase 2a trial in adult PWS patients: tesofensine plasma concentration; assay type: in vivo, human; settings: for Mean trough plasma concentration of tesofensine: TM002 study, 0.50 mg tesofensine + 50 mg metoprolol daily
Description: This exploratory Phase 2a trial comprised in of a total of nine adult patients with Prader-Willi syndrome (PWS) of which six patients received co-administration of tesofensine (0.50 mg)/metoprolol (50 mg) (A, active treatment—Tesomet) and three patients received placebo (P). The initial plan was to complete 10-20 adult subjects with PWS. However, ultimately nine patients were randomized as more subjects were not available at the two participating sites.
The main objective of this study was to examine the effect of co-administration of tesofensine/metoprolol on body weight in subjects with PWS. Further objectives were: • To establish a pharmacokinetic profile of tesofensine and metoprolol in subjects with PWS. • To examine the effect of co-administration of tesofensine/metoprolol on glycaemic control and lipid profile in subjects with PWS • To examine the effect of co-administration of tesofensine/metoprolol on HR and BP in subjects with PWS • To examine the effects of co-administration of tesofensine/metoprolol on body composition in subjects with PWS • To evaluate overall safety and tolerability of co-administration of the tesofensine/metoprolol in subjects with PWS
Arm 1) tesofensine 0.50 mg+metoprolol 50 mg administered once a day, in the morning with a meal
The study included two arms: Tesomet 0.5/50 (combination of 0.50 mg tesofensine and 50 mg of metoprolol ER) or placebo tablets matching tesofensine+metoprolol succinate, each administered once daily in the morning with a meal.
The primary endpoint was change in body weight following 91 days of treatment with either tesofensine+metoprolol or placebo. Patients were weighed throughout the study period to track changes in body weight. Secondary endpoints included change in hyperphagia-related behavior, pharmacokinetic profile, effects of co-administration of tesofensine/metoprolol on HR, BP, glycemic control, lipid profile and body composition, and safety and tolerability.

[5] = Phase 2a trial in adolescent PWS patients: hyperphagia score; assay type: in vivo, human
Description: as §1, §2

[6] = in vivo; cited from earlier work
[7] = cited from earlier work; remark: listed apart in the source
[8] = Phase 2a trial in adolescent PWS patients: body weight and BMI, random coefficients analysis; assay type: in vivo, human
Description: Arm 1) tesofensine 0.125 mg+metoprolol 25 mg administered once a day, in the morning with a meal-first, an initial titration dose of tesofensine 0.0625 mg+metoprolol 25 mg will be given for the first 4 weeks, in the morning with a meal. Following a favorable review of all safety data for each subject by the investigator, tesofensine 0.125 mg+metoprolol 25 mg will be given for the final 9 weeks (the above proposed dosing plan can be adjusted by the DSMB, if needed)
as §1, §2
In the random coefficients analysis, each subject was considered as having their own profile of data, i.e. their own set of weight change/hyperphagia values and corresponding pk values. The analysis was essentially conducted by fitting a regression line to each subject individually:
where j denotes subjects, j=1 to m, and i denotes the measurement with subject j, i=1 to nj. The slope βj and intercept αj estimate for each subject j=1 to m, along with their standard errors, were then obtained. In a final step, the βj and αj values were averaged across the m subjects to give the overall mean regression slope and mean intercept, βj and αj, which gives the correlation line, as well as the associated confidence interval.

[9] = 0.125 mg tesofensine daily (DB, OLE1)

Compound: CCOC[C@@H]1[C@@H](c2ccc(Cl)c(Cl)c2)C[C@@H]2CC[C@H]1N2C [Tesofensine, (1R,2R,3S,5S)-3-(3,4-dichlorophenyl)-2-(ethoxymethyl)-8-methyl-8-azabicyclo[3.2.1]octane]
- average tesofensine trough plasma concentration ([1]; TIPO-1, dose of 0.5 mg Tesofensine): 10 ng/mL
- efficacious target plasma levels ([1]; previous studies in obese individuals at the same dosages): ~10 ng/mL and around 10 ng/mL
- body weight [2]: robust and sustained weight loss
- plasma levels of tesofensine [3, 9]: 3 to 5 ng/mL
- concentration at 3 months [3, 9]: 3 to 5 ng/mL
- concentration at 3 months ([3]; 0.25 mg tesofensine daily (OLE2)): 7 to 9 ng/mL
- Mean trough plasma concentration of tesofensine ([4]; V5 (day 28), n = 6): 18 ± 9 ng/mL
- Mean trough plasma concentration of tesofensine ([4]; V9 (day 56), n = 5): 21 ± 8 ng/mL
- Mean trough plasma concentration of tesofensine ([4]; V14 (day 91), n = 2): 23 ± 1 ng/mL
- plasma levels of tesofensine ([4]; adult PWS, 0.50 mg tesofensine and 50 mg metoprolol): 20 to 40 ng/mL
- plasma concentration in individual patients ([4]; adult PWS, 0.5 mg tesofensine, two patients): 34.1 ng/mL and 34.2 ng/mL
- mean trough plasma concentration ([4]; adult PWS, dosing of 0.5 mg tesofensine, whole study): ~20 ng/mL
- hyperphagia scores compared to placebo ([5]; DB part and OLE1, 0.125 mg tesofensine daily): did not differ from placebo
- hyperphagia compared to placebo ([5]; DB phase, 0.125 mg tesofensine dose): No difference compared to placebo
- hyperphagia scores ([5]; OLE2, 0.25 mg tesofensine): dropped to single digit numerical values
- serum half-life [6]: nine
- waist circumference and sagittal diameter ([7]; Astrup et al., 2008): significantly decreases
- weight loss ([7]; obese patients, long-term treatment, corrected for placebo and diet effects): about 10%
- weight change compared to placebo ([8]; adolescent PWS, DB phase, 0.125 mg tesofensine dose): No difference compared to placebo
- decrease in weight ([8]; adolescent PWS, at 10 ng/mL tesofensine plasma level, from the correlation analysis): around 2%
- tesofensine plasma level that counteracts the baseline weight gain of around 3% ([8]; adolescent PWS, random coefficients analysis): around 6 ng/mL
- Slope (SE), monthly BMI change versus tesofensine plasma level ([8]; random coefficients analysis, N=8, p=0.0031): −0.478 (0.1081)
- Slope (SE), monthly body weight change versus tesofensine plasma level ([8]; random coefficients analysis, N=8, p=0.0046): −0.460 (0.1120)

Compound: COCCc1ccc(OCC(O)CNC(C)C)cc1 (stereo not drawn) [Metoprolol, 1-(Isopropylamino)-3-[4-(2-methoxyethyl)-phenoxy]-propan-2-ol, reference compound]
- half-life [6]: 3 to 4 h
